{"source": "patent US20020137929A1", "about": "“1 - (3-heterocyclylphenyl) isothiourea, -isourea, -guanidine and -amidine herbicidal agents” (Intellectual Property Department, BASF Aktiengesellschaft, priority 1998, published 2002)", "key": {"[1]": {"tested_on": "ABUTH (Velvetleaf)", "test": "Postemergence herbicidal evaluation", "type": "in vivo, Abutilon theophrasti", "conditions": "postemergence", "summary_of_the_method": "(§1)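 Rate range approx. 0.0156–0.500 kg/ha. Foliar application at 40 psi to ~2-week seedlings; surfactant 0.5% TWEEN 20 in 50/50 acetone/water. Evaluation 4–5 wk post-treatment by 0–9 visual injury score, means of replicate tests.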"}, "[2]": {"tested_on": "AMBEL (Ragweed, Common)", "test": "Postemergence herbicidal evaluation", "type": "in vivo, Ambrosia artemisifolia", "conditions": "postemergence", "summary_of_the_method": "as §1"}, "[3]": {"tested_on": "ECHCG (Barnyardgrass)", "test": "Postemergence herbicidal evaluation", "type": "in vivo, Echinochloa crus-galli", "conditions": "postemergence", "summary_of_the_method": "as §1"}, "[4]": {"tested_on": "SETVI (Foxtail, Green)", "test": "Postemergence herbicidal evaluation", "type": "in vivo, Setaria viridis", "conditions": "postemergence", "summary_of_the_method": "as §1"}, "[5]": {"tested_on": "GLXMAW (Soybean, Williams)", "test": "Postemergence herbicidal evaluation", "type": "in vivo, Glycine max, (L.) Merr. cv Williams", "conditions": "postemergence", "summary_of_the_method": "as §1"}, "[6]": {"tested_on": "ORYSAT (Rice, Tebonnet)", "test": "Postemergence herbicidal evaluation", "type": "in vivo, Oryza sativa, (L.) Tebonnet", "conditions": "postemergence", "summary_of_the_method": "as §1"}, "[7]": {"tested_on": "TRZAWR (Wheat, Winter, cv Riband)", "test": "Postemergence herbicidal evaluation", "type": "in vivo, Triticum aestivum", "conditions": "postemergence", "summary_of_the_method": "as §1"}, "[8]": {"tested_on": "ABUTH (Velvetleaf)", "test": "Preemergence herbicidal evaluation", "type": "in vivo, Abutilon theophrasti", "conditions": "preemergence, rated 4-5 weeks after treatment, 0-9 scale", "summary_of_the_method": "(§2)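 Preemergence soil application of compound, sprayed in aqueous acetone at rates equivalent to about 0.0156 to 0.500 kg per hectare onto freshly sown cups. Plant response was judged by eye on a 0-9 scale four to five weeks later.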"}, "[9]": {"tested_on": "CASOB (Sicklepod)", "test": "Preemergence herbicidal evaluation", "type": "in vivo, Cassia obtusifolia", "conditions": "preemergence, rated 4-5 weeks after treatment, 0-9 scale", "summary_of_the_method": "as §2"}, "[10]": {"tested_on": "SETVI (Foxtail, Green)", "test": "Preemergence herbicidal evaluation", "type": "in vivo, Setaria viridis", "conditions": "preemergence, rated 4-5 weeks after treatment, 0-9 scale", "summary_of_the_method": "as §2"}, "[11]": {"tested_on": "MOOVA (Monochoria)", "test": "Preemergence weed control under flooded paddy conditions", "type": "in vivo, Monochoria vaginalis", "conditions": "rated 3-4 weeks after treatment", "summary_of_the_method": "(§3)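 Using flooded silt loam (water 1.5 to 3 cm deep), seeds sown in the top 0.5 cm were exposed preemergence to compound pipetted into the flood at about 0.0313 to 0.500 kg/ha. Effects were scored 0-9 by eye three to four weeks later.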"}, "[12]": {"tested_on": "SAGPY (Arrowhead (Pygmaea))", "test": "Preemergence weed control under flooded paddy conditions", "type": "in vivo, Sagittaria pygmaea", "conditions": "rated 3-4 weeks after treatment", "summary_of_the_method": "as §3"}, "[13]": {"tested_on": "CYPIR (Rice Flatsedge)", "test": "Postemergence weed control under flooded paddy conditions", "type": "in vivo, Cyperus iria", "conditions": "postemergence weeds, rated 3 to 4 weeks after treatment", "summary_of_the_method": "(§4)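 With weeds 3 to 5 cm tall and rice at the 1.5 to 2.5 leaf stage, containers were flooded and water held 1.5 to 3 cm above soil. Compounds in 50/50 v/v aqueous/acetone went into the flood water at about 0.0313 to 0.500 kg/ha a.i. Effects were visually rated 0–9 against controls after three to four weeks in the greenhouse.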"}, "[14]": {"tested_on": "SAGPY (Arrowhead (Pygmaea))", "test": "Postemergence weed control under flooded paddy conditions", "type": "in vivo, Sagittaria pygmaea", "conditions": "postemergence weeds, rated 3 to 4 weeks after treatment", "summary_of_the_method": "as §4"}}}
{"smiles": "CN1C(=O)C(CC(=O)NS(=O)(=O)c2ccccc2)SC1=Nc1cc(-n2c(=O)cc(C(F)(F)F)n(C)c2=O)c(F)cc1Cl", "note": "(stereo not drawn) [Compound 102, 2-{{2-Chloro-5-[3,6-dihydro-3-methyl-2,6-dioxo-4-(trifluoromethyl)-1(2H)-pyrimidinyl]-4-fluorophenyl}imino}-3-methyl-4-oxo-N-(phenylsulfonyl)-5-thiazolidineacetamide]", "values": [{"measurement": "Herbicidal rating ABUTH", "setting": "[1]; rate 0.0156 kg/ha", "value": 7.0}, {"measurement": "Herbicidal rating ABUTH", "setting": "[1]; rate 0.0313 kg/ha", "value": 9.0}, {"measurement": "Herbicidal rating ABUTH", "setting": "[1]; rate 0.0625 kg/ha", "value": 9.0}, {"measurement": "Herbicidal rating ABUTH", "setting": "[1]; rate 0.1250 kg/ha", "value": 9.0}, {"measurement": "Herbicidal rating AMBEL", "setting": "[2]; rate 0.0156 kg/ha", "value": 7.0}, {"measurement": "Herbicidal rating AMBEL", "setting": "[2]; rate 0.0313 kg/ha", "value": 9.0}, {"measurement": "Herbicidal rating AMBEL", "setting": "[2]; rate 0.0625 kg/ha", "value": 7.0}, {"measurement": "Herbicidal rating AMBEL", "setting": "[2]; rate 0.1250 kg/ha", "value": 9.0}, {"measurement": "Herbicidal rating ECHCG", "setting": "[3]; rate 0.0156 kg/ha", "value": 0.0}, {"measurement": "Herbicidal rating ECHCG", "setting": "[3]; rate 0.0313 kg/ha", "value": 1.0}, {"measurement": "Herbicidal rating ECHCG", "setting": "[3]; rate 0.0625 kg/ha", "value": 2.0}, {"measurement": "Herbicidal rating ECHCG", "setting": "[3]; rate 0.1250 kg/ha", "value": 6.0}, {"measurement": "Herbicidal rating SETVI", "setting": "[4]; rate 0.0156 kg/ha", "value": 0.0}, {"measurement": "Herbicidal rating SETVI", "setting": "[4]; rate 0.0313 kg/ha", "value": 1.0}, {"measurement": "Herbicidal rating SETVI", "setting": "[4]; rate 0.0625 kg/ha", "value": 2.0}, {"measurement": "Herbicidal rating SETVI", "setting": "[4]; rate 0.1250 kg/ha", "value": 4.0}, {"measurement": "Herbicidal rating GLXMAW", "setting": "[5]; rate 0.0156 kg/ha", "value": 5.0}, {"measurement": "Herbicidal rating GLXMAW", "setting": "[5]; rate 0.0313 kg/ha", "value": 5.0}, {"measurement": "Herbicidal rating GLXMAW", "setting": "[5]; rate 0.0625 kg/ha", "value": 6.0}, {"measurement": "Herbicidal rating GLXMAW", "setting": "[5]; rate 0.1250 kg/ha", "value": 7.5}, {"measurement": "Herbicidal rating ORYSAT", "setting": "[6]; rate 0.0156 kg/ha", "value": 2.5}, {"measurement": "Herbicidal rating ORYSAT", "setting": "[6]; rate 0.0313 kg/ha", "value": 3.0}, {"measurement": "Herbicidal rating ORYSAT", "setting": "[6]; rate 0.0625 kg/ha", "value": 3.0}, {"measurement": "Herbicidal rating ORYSAT", "setting": "[6]; rate 0.1250 kg/ha", "value": 3.0}, {"measurement": "Herbicidal rating TRZAWR", "setting": "[7]; rate 0.0156 kg/ha", "value": 3.0}, {"measurement": "Herbicidal rating TRZAWR", "setting": "[7]; rate 0.0313 kg/ha", "value": 3.0}, {"measurement": "Herbicidal rating TRZAWR", "setting": "[7]; rate 0.0625 kg/ha", "value": 4.5}, {"measurement": "Herbicidal rating TRZAWR", "setting": "[7]; rate 0.1250 kg/ha", "value": 4.5}, {"measurement": "ABUTH rating", "setting": "[8]; 0.0156 kg/ha", "value": 0.0}, {"measurement": "ABUTH rating", "setting": "[8]; 0.0313 kg/ha", "value": 0.0}, {"measurement": "ABUTH rating", "setting": "[8]; 0.0625 kg/ha", "value": 9.0}, {"measurement": "ABUTH rating", "setting": "[8]; 0.2500 kg/ha", "value": 6.0}, {"measurement": "ABUTH rating", "setting": "[8]; 0.5000 kg/ha", "value": 9.0}, {"measurement": "CASOB rating", "setting": "[9]; 0.0156 kg/ha", "value": 0.0}, {"measurement": "CASOB rating", "setting": "[9]; 0.0313 kg/ha", "value": 0.0}, {"measurement": "CASOB rating", "setting": "[9]; 0.0625 kg/ha", "value": 0.0}, {"measurement": "CASOB rating", "setting": "[9]; 0.2500 kg/ha", "value": 0.0}, {"measurement": "CASOB rating", "setting": "[9]; 0.5000 kg/ha", "value": 4.0}, {"measurement": "SETVI rating", "setting": "[10]; 0.0156 kg/ha", "value": 1.0}, {"measurement": "SETVI rating", "setting": "[10]; 0.0313 kg/ha", "value": 1.0}, {"measurement": "SETVI rating", "setting": "[10]; 0.0625 kg/ha", "value": 0.0}, {"measurement": "SETVI rating", "setting": "[10]; 0.2500 kg/ha", "value": 0.0}, {"measurement": "SETVI rating", "setting": "[10]; 0.5000 kg/ha", "value": 1.0}, {"measurement": "MOOVA herbicidal effect rating", "setting": "[11]; 0.2500 kg/ha", "value": 0.0}, {"measurement": "MOOVA herbicidal effect rating", "setting": "[11]; 0.5000 kg/ha", "value": 4.0}, {"measurement": "SAGPY herbicidal effect rating", "setting": "[12]; 0.2500 kg/ha", "value": 0.0}, {"measurement": "SAGPY herbicidal effect rating", "setting": "[12]; 0.5000 kg/ha", "value": 0.0}, {"measurement": "Herbicidal rating CYPIR", "setting": "[13]; Rate 0.2500 kg/ha", "value": 2.0}, {"measurement": "Herbicidal rating CYPIR", "setting": "[13]; Rate 0.5000 kg/ha", "value": 6.0}, {"measurement": "Herbicidal rating SAGPY", "setting": "[14]; Rate 0.2500 kg/ha", "value": 0.0}, {"measurement": "Herbicidal rating SAGPY", "setting": "[14]; Rate 0.5000 kg/ha", "value": 0.0}]}
